# Assay results from ChEMBL document CHEMBL4602617, “Discovery and optimization of heteroaryl piperazines as potent and selective PI3Kδ inhibitors” (Bioorg Med Chem Lett, 2020).
# Tests used:
# [1] = Clearance in rat plasma at 0.5 mg/kg, iv or 1 mg/kg, po; assay type: ADME, organism-based
# [2] = Oral bioavailability in rat at 0.5 mg/kg; assay type: ADME, organism-based; conditions: in vivo
# [3] = Clearance in dog plasma at 0.5 mg/kg, iv or 1 mg/kg, po; assay type: ADME, organism-based, Canis lupus familiaris
# [4] = molecular target: Beta-adrenergic receptor kinase 1 (Homo sapiens, UniProt P25098); test: Inhibition of recombinant full length human His-tagged GRK2 expressed in baculovirus expression system using serine/threonine-16 peptide as substrate incubated for 60 mins in presence of ATP by Z'-LYTE assay
# [5] = molecular target: Phosphatidylinositol 4-phosphate 3-kinase C2 domain-containing subunit beta (Homo sapiens, UniProt O00750); test: Inhibition of recombinant GST-tagged human PIK3C2B catalytic domain expressed in baculovirus expression system using PI as substrate after 1 hr in presence of ATP by Adapta assay
# [6] = molecular target: Phosphatidylinositol 4,5-bisphosphate 3-kinase catalytic subunit gamma isoform (Homo sapiens, UniProt P48736); test: Inhibition of His-tagged recombinant human full length PI3K p110gamma expressed in baculovirus expression system using PIP2:PS lipid as substrate incubated for 1 hr in presence of ATP by Adapta assay
# [7] = molecular target: PI3-kinase p110-delta/p85-alpha (Homo sapiens, UniProt O00329); test: Inhibition of His-tagged recombinant human PI3K p110delta/p85alpha expressed in baculovirus expression system using PIP2:PS lipid as substrate in presence of ATP after 1 hr by Adapta assay
# [8] = molecular target: Histamine H4 receptor (Homo sapiens) (UniProt Q9H3N8); test: Inhibition of human histamine H4 receptor at 10 uM relative to control
# [9] = molecular target: Metabotropic glutamate receptor 5 (Homo sapiens) (UniProt P41594); test: Displacement of [3H]quisqualic acid from full length human recombinant mGlu5 receptor expressed in CHO-K1 cells at 10 uM measured after 120 mins by radiometric scintillation analysis relative to control; assay type: cell-based
# [10] = molecular target: C-X-C chemokine receptor type 2 (Homo sapiens) (UniProt P25025); test: Displacement of [125I]IL-8 from recombinant full length human CXCR2 receptor expressed in CHOK1 cells at 10 uM measured after 60 mins by radiometric scintillation analysis relative to control; assay type: cell-based; conditions: CHO-K1
# [11] = molecular target: Dual specificity protein kinase CLK1 (Homo sapiens, UniProt P49759); test: Inhibition of recombinant human GST-tagged CLK1 catalytic domain (129 to 484 residues) expressed in Escherichia coli expression system using serine/threonine-9 peptide as substrate incubated for 60 mins in presence of ATP by Z'-LYTE assay
# [12] = molecular target: Casein kinase I isoform alpha (Homo sapiens, UniProt P48729); test: Inhibition of recombinant full length human GST-tagged CSNK1A1 expressed in baculovirus expression system using fluorophore-labeled serine/threonine-11 peptide as substrate incubated for 60 mins in presence of ATP by Z'-LYTE assay
# [13] = molecular target: Eukaryotic elongation factor 2 kinase (Homo sapiens, UniProt O00418); test: Inhibition of recombinant human full length GST-tagged EEF2K expressed in Escherichia coli expression system using serine/threonine-24 peptide as substrate incubated for 60 mins in presence of ATP by Z'-LYTE assay
# [14] = molecular target: Ephrin type-A receptor 4 (Homo sapiens, UniProt P54764); test: Inhibition of recombinant human GST-tagged EPHA4 cytoplasmic domain expressed in baculovirus expression system using tyrosine-02 peptide as substrate incubated for 60 mins in presence of ATP by Z'-Lyte assay
# [15] = molecular target: Inhibitor of nuclear factor kappa-B kinase subunit beta (Homo sapiens, UniProt O14920); test: Inhibition of recombinant human full-length GST-tagged IKBKB expressed in baculovirus expression system using FRET-labeled Ser/Thr 05 peptide as substrate measured after 1 hr in presence of ATP by Z'-lyte assay
# [16] = molecular target: T1, Tyrosine-protein kinase JAK2 (Homo sapiens, UniProt O60674); test: Inhibition of recombinant GST-tagged human JAK2-JH1/JH2 domain (574 to 1154 residues) expressed in baculovirus expression system using Tyr 06 as substrate after 1 hr in presence of ATP by Z'LYTE assay
# [17] = molecular target: T1, Tyrosine-protein kinase JAK2; test: Inhibition of human recombinant N-terminal GST tagged JAK2 JH1 catalytic domain (532 to 1132 residues) expressed in baculovirus expression system using Tyr6 peptide as measured after 1 hr in presence of ATP by Z'-LYTE assay
# [18] = molecular target: Maternal embryonic leucine zipper kinase (Homo sapiens, UniProt Q14680); test: Inhibition of recombinant human GST-tagged MELK catalytic domain expressed in baculovirus expression system using serine/threonine-17 peptide as substrate incubated for 60 mins in presence of ATP by Z'-LYTE assay
# [19] = molecular target: Hepatocyte growth factor receptor (Homo sapiens, UniProt P08581, M1250T); test: Inhibition of human recombinant His-tagged cMET M1250T mutant cytoplasmic domain expressed in baculovirus expression system using tyrosine 6 peptide as substrate after 60 mins in presence of ATP FRET based Z'-LYTE assay
# [20] = molecular target: Muscle, skeletal receptor tyrosine-protein kinase (Homo sapiens, UniProt O15146); test: Inhibition of recombinant human GST-tagged MUSK cytoplasmic domain (519 to 869 residues) expressed in baculovirus expression system using tyrosine-4 peptide as substrate incubated for 60 mins in presence of ATP by Z'-LYTE assay
# [21] = molecular target: Serine/threonine-protein kinase Nek4 (Homo sapiens, UniProt P51957); test: Inhibition of recombinant full length human GST-tagged NEK4 expressed in baculovirus expression system using serine/threonine-7 peptide as substrate incubated for 60 mins in presence of ATP by Z'-LYTE assay
# [22] = molecular target: Platelet-derived growth factor receptor alpha (Homo sapiens, UniProt P16234); test: Inhibition of recombinant human GST-tagged PDGFRalpha cytoplasmic domain (550 to 1089 residues) expressed in baculovirus expression system using tyrosine-4 peptide as substrate incubated for 60 mins in presence of ATP by Z'-LYTE assay
# [23] = molecular target: Platelet-derived growth factor receptor alpha (Homo sapiens, UniProt P16234, T674I); test: Inhibition of recombinant human GST-tagged PDGFRalpha cytoplasmic domain (550 to 1089 residues) harboring T674I mutant expressed in baculovirus expression system using tyrosine-4 peptide as substrate incubated for 60 mins in presence of ATP by Z'-LYTE assay
# [24] = molecular target: Phosphorylase b kinase gamma catalytic chain, liver/testis isoform (Homo sapiens, UniProt P15735); test: Inhibition of recombinant full length human N-terminal GST-tagged PHKG2 expressed in baculovirus expression system using serine/threonine-7 peptide as substrate incubated for 60 mins in presence of ATP by Z'-LYTE assay
# [25] = molecular target: Protein kinase C epsilon type (Homo sapiens, UniProt Q02156); test: Inhibition of recombinant full length human GST-tagged PRKCE expressed in insect expression system using serine/threonine-7 peptide as substrate incubated for 60 mins in presence of ATP by Z'-LYTE assay
# [26] = molecular target: Tyrosine-protein kinase TXK (Homo sapiens, UniProt P42681); test: Inhibition of recombinant human GST-tagged TXK catalytic domain (260 to 527 residues) expressed in baculovirus expression system using tyrosine-6 peptide as substrate incubated for 60 mins in presence of ATP by Z'-LYTE assay
# T1 sequence (O60674 whole entry, the tested form may be a part): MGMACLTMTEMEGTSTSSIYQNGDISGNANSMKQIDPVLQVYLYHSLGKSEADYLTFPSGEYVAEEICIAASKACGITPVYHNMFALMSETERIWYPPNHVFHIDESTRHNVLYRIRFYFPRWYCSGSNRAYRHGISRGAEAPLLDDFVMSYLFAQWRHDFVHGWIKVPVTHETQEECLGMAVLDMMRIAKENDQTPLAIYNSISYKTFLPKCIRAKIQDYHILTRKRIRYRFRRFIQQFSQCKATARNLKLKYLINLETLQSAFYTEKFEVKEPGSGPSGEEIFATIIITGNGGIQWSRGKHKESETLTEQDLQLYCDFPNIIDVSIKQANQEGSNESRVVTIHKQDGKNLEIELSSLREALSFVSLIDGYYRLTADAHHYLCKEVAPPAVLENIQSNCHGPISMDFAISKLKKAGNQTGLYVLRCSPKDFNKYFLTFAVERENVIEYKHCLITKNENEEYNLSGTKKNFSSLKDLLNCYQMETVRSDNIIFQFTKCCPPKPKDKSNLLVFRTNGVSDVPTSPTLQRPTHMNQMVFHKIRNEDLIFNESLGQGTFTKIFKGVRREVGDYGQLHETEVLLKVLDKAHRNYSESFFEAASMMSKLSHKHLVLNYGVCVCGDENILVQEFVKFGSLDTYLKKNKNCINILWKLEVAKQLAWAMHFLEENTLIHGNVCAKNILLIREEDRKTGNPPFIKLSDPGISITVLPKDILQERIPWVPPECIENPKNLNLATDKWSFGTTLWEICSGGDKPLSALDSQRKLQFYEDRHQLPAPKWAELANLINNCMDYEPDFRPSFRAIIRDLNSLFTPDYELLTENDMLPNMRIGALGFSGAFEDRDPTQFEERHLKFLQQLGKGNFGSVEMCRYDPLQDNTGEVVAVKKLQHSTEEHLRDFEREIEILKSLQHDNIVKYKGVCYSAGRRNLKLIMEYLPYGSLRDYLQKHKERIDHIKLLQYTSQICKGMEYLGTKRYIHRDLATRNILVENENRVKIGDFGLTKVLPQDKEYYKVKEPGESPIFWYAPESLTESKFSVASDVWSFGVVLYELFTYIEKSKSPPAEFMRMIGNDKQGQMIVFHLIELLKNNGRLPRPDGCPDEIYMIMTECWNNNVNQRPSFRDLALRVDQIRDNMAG
# Chain of Histamine H4 receptor (Homo sapiens) (Q9H3N8 whole entry): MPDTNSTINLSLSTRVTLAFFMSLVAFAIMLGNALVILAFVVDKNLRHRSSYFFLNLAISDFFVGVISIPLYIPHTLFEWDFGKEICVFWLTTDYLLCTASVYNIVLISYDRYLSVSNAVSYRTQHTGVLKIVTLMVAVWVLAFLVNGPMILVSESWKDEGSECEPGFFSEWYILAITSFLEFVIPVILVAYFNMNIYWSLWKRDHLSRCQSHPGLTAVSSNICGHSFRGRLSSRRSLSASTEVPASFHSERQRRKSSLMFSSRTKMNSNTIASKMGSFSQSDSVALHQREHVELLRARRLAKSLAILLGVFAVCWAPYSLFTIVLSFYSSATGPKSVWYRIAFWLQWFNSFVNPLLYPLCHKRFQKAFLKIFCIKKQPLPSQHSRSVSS
# Chain of Phosphorylase b kinase gamma catalytic chain, liver/testis isoform (P15735 whole entry, canonical isoform): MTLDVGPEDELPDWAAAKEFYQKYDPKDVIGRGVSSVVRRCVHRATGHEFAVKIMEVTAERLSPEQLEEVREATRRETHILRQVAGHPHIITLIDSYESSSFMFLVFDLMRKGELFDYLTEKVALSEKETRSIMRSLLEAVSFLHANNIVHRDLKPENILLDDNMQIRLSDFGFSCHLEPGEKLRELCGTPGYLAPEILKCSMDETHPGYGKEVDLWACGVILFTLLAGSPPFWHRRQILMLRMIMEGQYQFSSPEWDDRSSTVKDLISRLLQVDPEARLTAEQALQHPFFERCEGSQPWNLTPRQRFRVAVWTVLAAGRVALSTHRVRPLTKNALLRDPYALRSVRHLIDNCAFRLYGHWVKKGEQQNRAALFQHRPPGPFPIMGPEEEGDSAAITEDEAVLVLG
# Chain of Beta-adrenergic receptor kinase 1 (P25098 whole entry, the tested form may be a part): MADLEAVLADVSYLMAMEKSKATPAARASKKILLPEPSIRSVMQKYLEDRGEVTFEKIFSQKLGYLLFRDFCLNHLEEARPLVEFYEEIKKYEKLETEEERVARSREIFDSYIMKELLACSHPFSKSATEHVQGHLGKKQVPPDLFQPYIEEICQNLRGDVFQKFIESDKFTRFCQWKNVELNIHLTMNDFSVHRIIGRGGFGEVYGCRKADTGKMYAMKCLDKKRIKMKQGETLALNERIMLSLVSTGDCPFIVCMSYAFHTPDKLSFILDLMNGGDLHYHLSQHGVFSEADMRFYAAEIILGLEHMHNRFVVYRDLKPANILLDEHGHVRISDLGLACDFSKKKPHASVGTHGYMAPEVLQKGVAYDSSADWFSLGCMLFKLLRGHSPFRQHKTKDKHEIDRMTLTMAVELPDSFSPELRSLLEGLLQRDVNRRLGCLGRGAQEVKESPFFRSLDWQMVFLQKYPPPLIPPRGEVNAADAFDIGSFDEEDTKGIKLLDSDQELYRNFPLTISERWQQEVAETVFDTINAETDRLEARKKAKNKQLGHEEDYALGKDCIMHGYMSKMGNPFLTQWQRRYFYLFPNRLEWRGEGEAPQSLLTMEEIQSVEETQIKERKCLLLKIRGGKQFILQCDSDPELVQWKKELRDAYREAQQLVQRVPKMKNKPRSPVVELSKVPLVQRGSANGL
# Chain of Eukaryotic elongation factor 2 kinase (O00418 whole entry, the tested form may be a part): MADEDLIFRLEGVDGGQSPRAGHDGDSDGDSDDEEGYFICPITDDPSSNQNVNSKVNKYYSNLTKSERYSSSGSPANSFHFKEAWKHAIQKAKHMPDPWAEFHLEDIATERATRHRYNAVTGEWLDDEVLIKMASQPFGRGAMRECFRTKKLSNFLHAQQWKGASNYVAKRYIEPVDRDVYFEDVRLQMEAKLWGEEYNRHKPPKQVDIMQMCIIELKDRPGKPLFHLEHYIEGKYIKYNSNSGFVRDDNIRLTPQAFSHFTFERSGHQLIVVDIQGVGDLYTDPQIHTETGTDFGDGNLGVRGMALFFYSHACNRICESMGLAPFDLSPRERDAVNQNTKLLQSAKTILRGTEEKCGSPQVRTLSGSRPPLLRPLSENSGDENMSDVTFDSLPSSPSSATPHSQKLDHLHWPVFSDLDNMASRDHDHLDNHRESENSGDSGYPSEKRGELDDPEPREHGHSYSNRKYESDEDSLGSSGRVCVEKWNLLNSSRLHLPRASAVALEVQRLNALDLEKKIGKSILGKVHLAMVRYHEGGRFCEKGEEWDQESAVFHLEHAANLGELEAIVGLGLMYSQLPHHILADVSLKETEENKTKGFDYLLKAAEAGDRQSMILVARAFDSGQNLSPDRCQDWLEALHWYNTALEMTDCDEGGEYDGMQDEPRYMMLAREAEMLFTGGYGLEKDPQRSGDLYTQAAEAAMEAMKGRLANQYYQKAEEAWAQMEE
# Chain of Phosphatidylinositol 4-phosphate 3-kinase C2 domain-containing subunit beta (O00750 whole entry, the tested form may be a part, canonical isoform): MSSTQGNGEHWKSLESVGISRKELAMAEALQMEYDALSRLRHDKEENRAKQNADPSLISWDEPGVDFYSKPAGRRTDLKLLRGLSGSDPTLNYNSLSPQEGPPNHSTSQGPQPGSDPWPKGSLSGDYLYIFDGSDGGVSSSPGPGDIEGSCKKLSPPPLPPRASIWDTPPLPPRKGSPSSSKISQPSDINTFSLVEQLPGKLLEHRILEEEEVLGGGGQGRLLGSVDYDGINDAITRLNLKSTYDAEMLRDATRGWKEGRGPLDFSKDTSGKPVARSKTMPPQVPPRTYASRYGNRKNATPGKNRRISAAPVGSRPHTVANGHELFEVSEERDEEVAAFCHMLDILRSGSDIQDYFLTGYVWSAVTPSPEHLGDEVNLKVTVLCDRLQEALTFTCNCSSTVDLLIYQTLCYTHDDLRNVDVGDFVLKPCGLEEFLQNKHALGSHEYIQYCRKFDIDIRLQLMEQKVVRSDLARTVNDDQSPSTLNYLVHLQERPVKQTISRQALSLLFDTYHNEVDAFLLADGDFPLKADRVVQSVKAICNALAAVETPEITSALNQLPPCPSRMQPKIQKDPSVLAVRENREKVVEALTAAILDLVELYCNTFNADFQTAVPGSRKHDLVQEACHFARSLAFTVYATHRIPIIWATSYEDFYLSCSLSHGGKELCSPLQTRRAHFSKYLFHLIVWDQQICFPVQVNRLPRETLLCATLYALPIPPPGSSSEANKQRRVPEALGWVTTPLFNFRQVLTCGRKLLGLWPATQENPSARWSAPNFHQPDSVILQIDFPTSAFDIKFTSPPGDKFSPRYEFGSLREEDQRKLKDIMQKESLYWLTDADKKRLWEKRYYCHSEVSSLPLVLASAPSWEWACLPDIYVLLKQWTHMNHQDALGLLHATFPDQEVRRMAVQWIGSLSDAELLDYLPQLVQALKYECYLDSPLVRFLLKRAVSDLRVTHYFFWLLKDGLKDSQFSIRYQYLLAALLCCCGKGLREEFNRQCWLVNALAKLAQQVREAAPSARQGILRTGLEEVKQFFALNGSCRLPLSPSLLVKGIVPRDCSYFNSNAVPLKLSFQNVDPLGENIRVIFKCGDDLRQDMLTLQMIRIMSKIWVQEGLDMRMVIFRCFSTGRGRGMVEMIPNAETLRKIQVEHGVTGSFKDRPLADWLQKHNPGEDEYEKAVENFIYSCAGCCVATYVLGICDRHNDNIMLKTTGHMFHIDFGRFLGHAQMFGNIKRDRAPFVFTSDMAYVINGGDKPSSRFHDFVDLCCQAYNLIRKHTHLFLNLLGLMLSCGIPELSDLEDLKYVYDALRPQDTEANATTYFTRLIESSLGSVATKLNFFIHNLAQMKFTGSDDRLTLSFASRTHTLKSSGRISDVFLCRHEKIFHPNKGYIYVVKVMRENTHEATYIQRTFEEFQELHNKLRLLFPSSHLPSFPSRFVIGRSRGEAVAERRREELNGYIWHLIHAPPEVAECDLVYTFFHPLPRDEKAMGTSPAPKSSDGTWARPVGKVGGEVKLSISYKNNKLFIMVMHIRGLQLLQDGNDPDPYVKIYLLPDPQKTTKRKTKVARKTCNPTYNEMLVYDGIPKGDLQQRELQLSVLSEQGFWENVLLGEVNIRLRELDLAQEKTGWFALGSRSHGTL
compound,measurement,setting,value
C[C@@H]1C[C@H]1C(=O)N1CCN(c2cnc(C#N)c(-c3cnn(C)c3)n2)C[C@H]1C,clearance,[1],28.5 mL/min/kg
same,bioavailability,[2],79%
same,clearance,[3],8 mL/min/kg
same,IC50,[4],> 100 µM
same,IC50,[5],40.5 µM
same,IC50,[6],0.945 µM
same,IC50,[7],0.884 µM
same,inhibition,[8],1%
same,inhibition,[9],8%
same,inhibition,[10],5%
same,IC50,[11],> 100 µM
same,IC50,[12],> 100 µM
same,IC50,[13],> 100 µM
same,IC50,[14],> 100 µM
same,IC50,[15],> 100 µM
same,IC50,[16],> 100 µM
same,IC50,[17],> 100 µM
same,IC50,[18],> 100 µM
same,IC50,[19],> 100 µM
same,IC50,[20],> 100 µM
same,IC50,[21],> 100 µM
same,IC50,[22],> 100 µM
same,IC50,[23],> 100 µM
same,IC50,[24],> 100 µM
same,IC50,[25],> 100 µM
same,IC50,[26],> 100 µM
